Columns and labels:
[1] = target: Isoform Alpha-1 of Mitogen-activated protein kinase 10 (Alpha-1) 9-402] (Homo sapiens, UniProt P53779); assay: Homogeneous Time-resolved Fluorescence Assay; details: pH 7; 22 °C
Protocol: (§1) Biochemical IC50s for JNK were determined using HTRF. In each assay the phosphor-Thr71-ATF-2 product was detected using a Europium-cryptate labeled anti-phospho-Thr71-ATF-2 antibody. Streptavidin-allophycocyanin-XL was used as the acceptor. A 10-point dose-response curve for each compound was generated in duplicate and data was fit to a four parameter logistic.

[2] = target: Mitogen-activated protein kinase 8 (Homo sapiens, UniProt P45983); assay: Homogeneous Time-resolved Fluorescence Assay
Mitogen-activated protein kinase 8, sequence (P45983 whole entry): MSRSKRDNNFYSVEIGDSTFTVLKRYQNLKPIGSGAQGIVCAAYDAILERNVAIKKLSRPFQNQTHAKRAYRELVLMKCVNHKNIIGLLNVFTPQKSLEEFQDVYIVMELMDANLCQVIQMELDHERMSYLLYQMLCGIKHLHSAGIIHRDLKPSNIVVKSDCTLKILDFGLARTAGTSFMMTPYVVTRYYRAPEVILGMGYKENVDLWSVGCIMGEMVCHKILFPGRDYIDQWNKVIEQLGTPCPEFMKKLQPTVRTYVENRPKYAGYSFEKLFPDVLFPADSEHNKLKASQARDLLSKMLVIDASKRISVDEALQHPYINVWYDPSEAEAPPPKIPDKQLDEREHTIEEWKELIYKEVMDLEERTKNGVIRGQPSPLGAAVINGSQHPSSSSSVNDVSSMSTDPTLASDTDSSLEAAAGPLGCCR
Protocol: as §1

Isoform Alpha-1 of Mitogen-activated protein kinase 10 (Alpha-1) 9-402], sequence (P53779 39-402): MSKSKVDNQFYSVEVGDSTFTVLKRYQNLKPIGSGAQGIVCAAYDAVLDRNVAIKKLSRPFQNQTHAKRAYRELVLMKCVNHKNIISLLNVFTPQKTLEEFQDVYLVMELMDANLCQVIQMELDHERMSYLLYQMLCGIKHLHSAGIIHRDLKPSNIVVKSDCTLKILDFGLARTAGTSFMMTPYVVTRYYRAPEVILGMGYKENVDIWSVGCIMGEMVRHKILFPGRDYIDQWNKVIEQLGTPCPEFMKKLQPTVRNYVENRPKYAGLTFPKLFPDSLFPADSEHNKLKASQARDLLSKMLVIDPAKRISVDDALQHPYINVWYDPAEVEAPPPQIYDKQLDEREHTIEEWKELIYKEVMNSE

- IC50 [1]: 1.26 µM
- IC50 [2]: 0.38 µM
SMILES: C=CCN1CCN(c2c(Cl)cccc2NC(=O)c2ccc(Br)o2)CC1 [piperazine amide, 6a]
